Measurements taken from PubChem BioAssay AID328 (DTP/NCI, 2004).
“And” between values parts separate entries of the source, which are not always exact repeats. Identical values can stand only once. Toxic doses and inconclusive results are not listed. Starred links: 1 amine or outer side, 2 acyl side, 3 side chain; linkers in the order of their positions; H or OH if unused. Positions of bridges follow the written chain, without caps; N, C: chain ends. Non-standard residues stand in square brackets, D forms with d. Residues, ends and D or L forms follow the SMILES beside them. Chains are numbered I, II in the order given. Actinocin(1to9) = Cc1c2oc3c(C)ccc(C(=O)[*:2])c3nc-2c(C(=O)[*:1])c(N)c1=O; X3 = O=C1CC(C(=O)[*:2])N([*:1])C1; NMeV = CN[CH](C(=O)O)C(C)C; Sar = CNCC(=O)O

Tested on: BDF1 mice, P388 leukemia ip, median survival T/C
Assay: NCI In Vivo Anticancer Drug Screen. Data for tumor model P388 Leukemia (intraperitoneal) in B6D2F1 (BDF1) mice
Settings: endpoint: median survival time, higher = longer survival
Method in brief: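 Steps: implant the tumour, treat one group with compound and another with vehicle, record survival, then divide treated by control.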

[1] = dose: 50.0 mg/kg/injection, schedule: Q04DX003 (ip), vehicle: saline
[2] = dose: 100.0 mg/kg/injection, schedule: Q04DX003 (ip), vehicle: saline
[3] = dose: 200.0 mg/kg/injection, schedule: Q04DX003 (ip), vehicle: saline
[4] = dose: 25.0 mg/kg/injection, schedule: Q01DX009 (ip), vehicle: saline with Tween-80
[5] = dose: 50.0 mg/kg/injection, schedule: Q01DX009 (ip), vehicle: saline with Tween-80
[6] = dose: 100.0 mg/kg/injection, schedule: Q01DX009 (ip), vehicle: saline with Tween-80
[7] = dose: 50.0 mg/kg/injection, schedule: Q01DX005 (ip), vehicle: saline with Tween-80
[8] = dose: 100.0 mg/kg/injection, schedule: Q01DX005 (ip), vehicle: saline with Tween-80
[9] = dose: 200.0 mg/kg/injection, schedule: Q01DX005 (ip), vehicle: saline with Tween-80
[10] = dose: 200.0 mg/kg/injection, schedule: Q01DX009 (ip), vehicle: saline with Tween-80
[11] = dose: 25.0 mg/kg/injection, schedule: Q01DX009 (ip), vehicle: water
[12] = dose: 50.0 mg/kg/injection, schedule: Q01DX009 (ip), vehicle: water
[13] = dose: 100.0 mg/kg/injection, schedule: Q01DX009 (ip), vehicle: water

For `C/C(=C\c1ccccc1)[N+](=O)[O-]`, the T/C (dose: 4.0 mg/kg/injection, schedule: Q01DX009 (ip), vehicle: Klucel (hydroxypropylcellulose) (HPC)) was 101 % of control, the T/C (dose: 6.2 mg/kg/injection, schedule: Q01DX009 (ip), vehicle: saline) was 90 % of control and the T/C (dose: 6.25 mg/kg/injection, schedule: Q01DX009 (ip), vehicle: saline) was 100 % of control. For the same compound, the T/C (dose: 8.0 mg/kg/injection, schedule: Q01DX009 (ip), vehicle: Klucel (hydroxypropylcellulose) (HPC)) was 108 % of control, the T/C (dose: 12.5 mg/kg/injection, schedule: Q01DX009 (ip), vehicle: saline) was 90 % of control and 105 % of control and the T/C (dose: 25.0 mg/kg/injection, schedule: Q01DX009 (ip), vehicle: Klucel (hydroxypropylcellulose) (HPC)) was 100 % of control. For the same compound, the T/C (dose: 25.0 mg/kg/injection, schedule: Q01DX009 (ip), vehicle: saline) was 90 % of control and 108 % of control and 119 % of control, the T/C (dose: 25.0 mg/kg/injection, schedule: Q04DX003 (ip), vehicle: Klucel (hydroxypropylcellulose) (HPC)) was 113 % of control and the T/C (dose: 30.0 mg/kg/injection, schedule: Q01DX009 (ip), vehicle: Klucel (hydroxypropylcellulose) (HPC)) was 118 % of control. The T/C (dose: 44.0 mg/kg/injection, schedule: Q01DX009 (ip), vehicle: Klucel (hydroxypropylcellulose) (HPC)) was 109 % of control, the T/C (dose: 50.0 mg/kg/injection, schedule: Q01DX009 (ip), vehicle: Klucel (hydroxypropylcellulose) (HPC)) was 87 % of control and the T/C (dose: 50.0 mg/kg/injection, schedule: Q01DX009 (ip), vehicle: saline) was 115 % of control and 123 % of control. The T/C (dose: 50.0 mg/kg/injection, schedule: Q04DX003 (ip), vehicle: Klucel (hydroxypropylcellulose) (HPC)) was 113 % of control, the T/C [1] was 100 % of control and the T/C (dose: 67.0 mg/kg/injection, schedule: Q01DX009 (ip), vehicle: Klucel (hydroxypropylcellulose) (HPC)) was 95 % of control. The T/C [2] was 109 % of control, the T/C [3] was 100 % of control and the T/C (dose: 400.0 mg/kg/injection, schedule: Q04DX003 (ip), vehicle: saline) was 109 % of control.

With `COc1ccc(-c2c[se]c(=S)s2)cc1` the T/C [4] was 99 % of control, the T/C [5] was 94 % of control and the T/C [6] was 87 % of control.

`Cc1c2oc3c(C)ccc(C(=O)NC4C(=O)NC(C(C)C)C(=O)N5CCCC5C(=O)N(C)CC(=O)N(C)C(C(C)C)C(=O)OC4C)c3nc-2c(C(=O)NC2C(=O)NC(C(C)C)C(=O)N3CC(=O)CC3C(=O)N(C)CC(=O)N(C)C(C(C)C)C(=O)OC2C)c(N)c1=O` (centres undefined) (I: TV[X3][Sar][NMeV] / II: TVP[Sar][NMeV]; ester I:1-I:C, II:1-II:C; linker I:N-II:N via Actinocin(1to9); configuration not given here) was tested, and the T/C (dose: 1.6 micrograms/kg/injection, schedule: Q01DX009 (ip), vehicle: water) was 120 % of control, the T/C (dose: 4.7 micrograms/kg/injection, schedule: Q04DX003 (ip), vehicle: water) was 163 % of control and the T/C (dose: 9.4 micrograms/kg/injection, schedule: Q04DX003 (ip), vehicle: water) was 162 % of control. For the same compound, the T/C (dose: 12.5 micrograms/kg/injection, schedule: Q01DX009 (ip), vehicle: water) was 172 % of control, the T/C (dose: 25.0 micrograms/kg/injection, schedule: Q01DX001 (ip), vehicle: water) was 155 % of control and the T/C (dose: 25.0 micrograms/kg/injection, schedule: Q01DX009 (ip), vehicle: water) was 120 % of control. For the same compound, the T/C (dose: 37.5 micrograms/kg/injection, schedule: Q04DX003 (ip), vehicle: water) was 175 % of control, the T/C (dose: 50.0 micrograms/kg/injection, schedule: Q01DX001 (ip), vehicle: water) was 155 % of control and the T/C (dose: 75.0 micrograms/kg/injection, schedule: Q04DX003 (ip), vehicle: water) was 86 % of control.

In the case of `COc1c2c(cc3oc4ccccc4c(=O)c13)CCCC2`, the T/C [7] is reported as 100 % of control, the T/C [8] is reported as 96 % of control and the T/C [9] is reported as 87 % of control.

With `Nc1nc(=O)n(C2CC(O)C(CO)O2)cc1Br` (centres undefined) the T/C [6] was 109 % of control, the T/C [10] was 90 % of control and the T/C (dose: 400.0 mg/kg/injection, schedule: Q01DX009 (ip), vehicle: saline with Tween-80) was 100 % of control.

With `O=C1c2ccccc2C(=O)c2c(NCCNCCNCCO)ccc(NCCNCCNCCO)c21` the T/C [11] was 100 % of control, the T/C [12] was 113 % of control and the T/C [13] was 115 % of control.

With `Clc1nc(NCc2ccccc2)c2cn[nH]c2n1` the T/C [4] was 91 % of control, the T/C [5] was 91 % of control and the T/C [6] was 91 % of control.

For `c1nc(SSc2ncnc3nc[nH]c23)c2[nH]cnc2n1`, the T/C (dose: 3.7 mg/kg/injection, schedule: Q04DX003 (ip), vehicle: saline) was 87 % of control, the T/C (dose: 7.5 mg/kg/injection, schedule: Q04DX003 (ip), vehicle: saline) was 91 % of control and the T/C (dose: 25.0 mg/kg/injection, schedule: Q04DX003 (ip), vehicle: saline with Tween-80) was 100 % of control. The T/C [1] was 120 % of control, the T/C (dose: 100.0 mg/kg/injection, schedule: Q04DX003 (ip), vehicle: saline with Tween-80) was 111 % of control and the T/C [2] was 87 % of control. For the same compound, the T/C (dose: 150.0 mg/kg/injection, schedule: Q04DX003 (ip), vehicle: saline) was 90 % of control, the T/C (dose: 225.0 mg/kg/injection, schedule: Q04DX003 (ip), vehicle: saline) was 90 % of control and the T/C (dose: 335.0 mg/kg/injection, schedule: Q04DX003 (ip), vehicle: saline) was 90 % of control.

With `CCOP(=O)(OCC)SCSC(C)C` the T/C (dose: 0.19 mg/kg/injection, schedule: Q01DX009 (ip), vehicle: Klucel (hydroxypropylcellulose) (HPC)) was 88 % of control and the T/C (dose: 3.12 mg/kg/injection, schedule: Q01DX009 (ip), vehicle: Klucel (hydroxypropylcellulose) (HPC)) was 96 % of control.

`Cc1cc(N(C)C)cc(C)c1N=Nc1cc[n+]([O-])cc1` was tested, and the T/C [5] was 104 % of control and the T/C [6] was 124 % of control.

In the case of `C/C(=C\C1C/C(=C/CCc2ccoc2)C(=O)O1)CCCc1ccoc1` (centres undefined), the T/C (dose: 5.0 mg/kg/injection, schedule: Q01DX009 (ip), vehicle: other) is reported as 107 % of control and the T/C (dose: 20.0 mg/kg/injection, schedule: Q01DX009 (ip), vehicle: other) is reported as 106 % of control.

With `O=C(O)c1nc2nc(Cl)c(Cl)nc2[nH]1` the T/C [1] was 111 % of control, the T/C [2] was 97 % of control and the T/C [3] was 116 % of control.

With `O=c1oc2ccccc2c2c1C(c1ccc3c(c1)OCO3)C=C(c1ccc3c(c1)OCO3)O2` (centres undefined) the T/C (dose: 12.5 mg/kg/injection, schedule: Q01DX009 (ip), vehicle: water) was 97 % of control, the T/C [11] was 104 % of control and the T/C (dose: 25.0 mg/kg/injection, schedule: Q04DX003 (ip), vehicle: water) was 113 % of control. For the same compound, the T/C [12] was 101 % of control and 104 % of control, the T/C (dose: 50.0 mg/kg/injection, schedule: Q04DX003 (ip), vehicle: water) was 116 % of control and the T/C [13] was 95 % of control. The T/C (dose: 100.0 mg/kg/injection, schedule: Q04DX003 (ip), vehicle: water) was 103 % of control, the T/C (dose: 200.0 mg/kg/injection, schedule: Q01DX009 (ip), vehicle: water) was 108 % of control and 123 % of control and the T/C (dose: 200.0 mg/kg/injection, schedule: Q04DX003 (ip), vehicle: water) was 102 % of control and 111 % of control. The T/C (dose: 300.0 mg/kg/injection, schedule: Q01DX009 (ip), vehicle: water) was 101 % of control, the T/C (dose: 300.0 mg/kg/injection, schedule: Q04DX003 (ip), vehicle: water) was 102 % of control and the T/C (dose: 400.0 mg/kg/injection, schedule: Q01DX009 (ip), vehicle: water) was 101 % of control. The T/C (dose: 400.0 mg/kg/injection, schedule: Q04DX003 (ip), vehicle: water) was 119 % of control and 120 % of control and the T/C (dose: 500.0 mg/kg/injection, schedule: Q01DX009 (ip), vehicle: water) was 118 % of control.

In the case of `Nc1ccc(S(=O)(=O)N/N=C/c2ccccc2Cl)cc1`, the T/C (dose: 12.5 mg/kg/injection, schedule: Q01DX009 (ip), vehicle: saline with Tween-80) is reported as 96 % of control, the T/C [4] is reported as 96 % of control and the T/C [5] is reported as 92 % of control.

For `COC(=O)c1cc(=O)nc(N/N=C/c2ccco2)s1`, the T/C [7] was 94 % of control, the T/C [8] was 89 % of control and the T/C [9] was 87 % of control.

In the case of `Cc1cc2nccc(/C=C/c3ccc(N(C)C)cc3)c2cc1C`, the T/C [5] is reported as 112 % of control, the T/C [6] is reported as 120 % of control and the T/C [10] is reported as 98 % of control.

With `CC(=O)OCC1OC(O)C(NC(=O)C(F)(F)F)C(OC(C)=O)C1OC(C)=O` (centres undefined) the T/C (dose: 12.5 mg/kg/injection, schedule: Q04DX003 (ip), vehicle: saline) was 118 % of control, the T/C (dose: 12.5 mg/kg/injection, schedule: Q## X003 (ip), vehicle: saline) was 104 % of control and the T/C (dose: 25.0 mg/kg/injection, schedule: Q## X003 (ip), vehicle: saline) was 119 % of control.

In the case of `CC(=O)C1CCC=C2C1CC1CC2C1(C)C` (centres undefined), the T/C (dose: 100.0 mg/kg/injection, schedule: Q04DX003 (ip), vehicle: Klucel (hydroxypropylcellulose) (HPC)) is reported as 100 % of control, the T/C (dose: 200.0 mg/kg/injection, schedule: Q04DX003 (ip), vehicle: Klucel (hydroxypropylcellulose) (HPC)) is reported as 109 % of control and the T/C (dose: 400.0 mg/kg/injection, schedule: Q04DX003 (ip), vehicle: Klucel (hydroxypropylcellulose) (HPC)) is reported as 104 % of control.
